Assay results: US20240158446A1, “CYCLIC COMPOUND HAVING SELECTIVE INHIBITORY ACTION ON KRAS OVER HRAS AND NRAS” (CHUGAI SEIYAKU KABUSHIKI KAISHA, priority 2021, published 2024)

Assays:
[1] = target: GDP-bound HRAS wild-type protein (Homo sapiens, UniProt P01112); experiment: Binding to HRAS by surface plasmon resonance (SPR), Single Cycle Kinetics; conditions: SPR KD ratio HRAS/KRAS, class symbols
[2] = target: GDP-bound KRAS wild-type protein (Homo sapiens, UniProt P01116); experiment: Binding to KRAS by surface plasmon resonance (SPR), Single Cycle Kinetics; conditions: SPR Single Cycle Kinetics, GDP-bound KRAS wild-type protein, 1:1 binding model; read-out: KRAS KD
[3] = target: GDP-bound NRAS wild-type protein (Homo sapiens, UniProt P01111); experiment: Binding to NRAS by surface plasmon resonance (SPR), Single Cycle Kinetics; conditions: SPR KD ratio NRAS/KRAS, class symbols
Sequence of GDP-bound NRAS wild-type protein (P01111 whole entry): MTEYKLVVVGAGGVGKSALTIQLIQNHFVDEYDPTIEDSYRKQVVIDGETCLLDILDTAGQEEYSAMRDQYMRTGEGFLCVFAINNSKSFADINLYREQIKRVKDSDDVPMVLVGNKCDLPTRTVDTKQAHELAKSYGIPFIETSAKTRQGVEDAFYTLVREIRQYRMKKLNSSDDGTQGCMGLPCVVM

Sequence of GDP-bound HRAS wild-type protein (P01112 whole entry): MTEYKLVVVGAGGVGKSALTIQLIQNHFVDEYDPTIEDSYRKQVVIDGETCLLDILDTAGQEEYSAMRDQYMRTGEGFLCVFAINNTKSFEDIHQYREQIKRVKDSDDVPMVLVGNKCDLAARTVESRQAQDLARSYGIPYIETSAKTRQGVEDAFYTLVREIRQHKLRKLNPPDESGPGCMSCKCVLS
Sequence of GDP-bound KRAS wild-type protein (P01116 whole entry): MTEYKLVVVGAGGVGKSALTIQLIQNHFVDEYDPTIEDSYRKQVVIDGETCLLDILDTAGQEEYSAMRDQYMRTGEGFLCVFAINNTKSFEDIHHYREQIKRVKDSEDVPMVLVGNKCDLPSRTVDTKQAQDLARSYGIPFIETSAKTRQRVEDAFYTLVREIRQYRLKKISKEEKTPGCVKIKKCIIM

| Compound | Kd [2] | HRAS/KRAS (ratio of KD value with respect to GDP-bound HRAS wild-type protein to KD value with respect to KRAS) [1] | NRAS/KRAS (ratio of KD value with respect to GDP-bound NRAS wild-type protein to KD value with respect to KRAS) [3] |
| --- | --- | --- | --- |
| CCO[C@@H]1C[C@H]2C(=O)NC3(CC(C)(C)C3)C(=O)N(C)[C@@H](C3CCCC3)C(=O)N(C)[C@H](C(=O)N(C)CC)CC(=O)N(C)[C@@H](COC)C(=O)N[C@@H]([C@@H](C)CC)C(=O)N(C)CC(=O)N(C)[C@H]3C/C=C\CCN(C3=O)[C@@H](Cc3ccc(C(F)(F)F)cc3)C(=O)N(C)CC(=O)N[C@@H](CCc3ccc(C(F)(F)F)c(Cl)c3)C(=O)N2C1 [PP2836] | 0.065 nM | A (a compound having 10 or more and less than 20 is denoted as A) | A (a compound having 10 or more and less than 20 is denoted as A) |
| CCO[C@@H]1C[C@H]2C(=O)NC3(CCCC3)C(=O)N(C)[C@@H](C3CCCC3)C(=O)N(C)[C@H](C(=O)N(C)C)CC(=O)N(C)[C@@H](CC(C)C)C(=O)N[C@@H]([C@@H](C)CC)C(=O)N(C)CC(=O)N(C)[C@H]3C/C=C\CCN(C3=O)[C@@H](Cc3ccc(C(F)(F)F)cc3)C(=O)N(C)CC(=O)N[C@@H](CCc3ccc(Cl)c(Cl)c3)C(=O)N2C1 [PP2837] | 0.21 nM | A (a compound having 10 or more and less than 20 is denoted as A) | AA (a compound having 20 or more is denoted as AA) |
| CCO[C@@H]1C[C@H]2C(=O)NC3(CCCC3)C(=O)N(C)[C@@H](C3CCCC3)C(=O)N(C)[C@H](C(=O)N(C)C)CC(=O)N(C)[C@@H](CC(C)C)C(=O)N[C@@H]([C@@H](C)CC)C(=O)N(C)CC(=O)N(C)[C@H]3C/C=C\CCN(C3=O)[C@@H](Cc3ccc(C(F)(F)F)cc3)C(=O)N(C)CC(=O)N[C@@H](CCc3ccc(C(F)(F)F)c(Cl)c3)C(=O)N2C1 [PP2838] | 0.066 nM | A (a compound having 10 or more and less than 20 is denoted as A) | AA (a compound having 20 or more is denoted as AA) |
| CCCC[C@H]1C(=O)N[C@@H]([C@@H](C)CC)C(=O)N(C)CC(=O)N(C)[C@H]2C/C=C\CCN(C2=O)[C@@H](Cc2ccc(C(F)(F)F)cc2)C(=O)N(C)CC(=O)N[C@@H](CCc2ccc(C(F)(F)F)c(OC)c2)C(=O)N2C[C@H](OCC)C[C@H]2C(=O)NC2(CCC2)C(=O)N(C)[C@@H](C2CCCC2)C(=O)N(C)[C@H](C(=O)N(C)CC)CC(=O)N1C [PP2840] | 0.1 nM | A (a compound having 10 or more and less than 20 is denoted as A) | A (a compound having 10 or more and less than 20 is denoted as A) |
| CCO[C@@H]1C[C@H]2C(=O)NC3(CCC3)C(=O)N(C)[C@@H](C3CCCC3)C(=O)N(C)[C@H](C(=O)N(C)C)CC(=O)N(C)[C@@H](CC3CCCC3)C(=O)N[C@@H]([C@@H](C)CC)C(=O)N(C)CC(=O)N(C)[C@H]3C/C=C\CCN(C3=O)[C@@H](Cc3ccc(C(F)(F)F)cc3)C(=O)N(C)CC(=O)N[C@@H](CCc3ccc(C(F)(F)F)c(Cl)c3)C(=O)N2C1 [PP2842] | 0.08 nM | B (a compound having 3 or more and less than 10 is denoted as B) | A (a compound having 10 or more and less than 20 is denoted as A) |
| C#CC[C@H]1C(=O)N[C@@H]([C@@H](C)CC)C(=O)N(C)CC(=O)N(C)[C@H]2C/C=C\CCN(C2=O)[C@@H](Cc2ccc(C(F)(F)F)cc2)C(=O)N(C)CC(=O)N[C@@H](CCc2ccc(Cl)c(Cl)c2)C(=O)N2C[C@H](OCC)C[C@H]2C(=O)NC2(CC(C)(C)C2)C(=O)N(C)[C@@H](C2CCCC2)C(=O)N(C)[C@H](C(=O)N(C)CC)CC(=O)N1C [PP2843] | 0.26 nM | A (a compound having 10 or more and less than 20 is denoted as A) | A (a compound having 10 or more and less than 20 is denoted as A) |
| C#CC[C@H]1C(=O)N[C@@H]([C@@H](C)CC)C(=O)N(C)CC(=O)N(C)[C@H]2C/C=C\CCN(C2=O)[C@@H](Cc2ccc(C(F)(F)F)cc2)C(=O)N(C)CC(=O)N[C@@H](CCc2ccc(C(F)(F)F)c(Cl)c2)C(=O)N2C[C@H](OCC)C[C@H]2C(=O)NC2(CC(C)(C)C2)C(=O)N(C)[C@@H](C2CCCC2)C(=O)N(C)[C@H](C(=O)N(C)CC)CC(=O)N1C [PP2844] | 0.12 nM | A (a compound having 10 or more and less than 20 is denoted as A) | A (a compound having 10 or more and less than 20 is denoted as A) |

The next lines start with results.

| Kd [2] | Compound | HRAS/KRAS (ratio of KD value with respect to GDP-bound HRAS wild-type protein to KD value with respect to KRAS) [1] | NRAS/KRAS (ratio of KD value with respect to GDP-bound NRAS wild-type protein to KD value with respect to KRAS) [3] |
| --- | --- | --- | --- |
| 0.091 nM | CCO[C@@H]1C[C@H]2C(=O)NC3(CCC3)C(=O)N(C)[C@@H](C3CCCC3)C(=O)N(C)[C@H](C(=O)N(C)CC)CC(=O)N(C)[C@@H](CC(C)C)C(=O)N[C@@H]([C@@H](C)CC)C(=O)N(C)CC(=O)N(C)[C@H]3C/C=C\CCN(C3=O)[C@@H](Cc3ccc(C(F)(F)F)cc3)C(=O)N(C)CC(=O)N[C@@H](CCc3ccc(C(F)(F)F)c(OC)c3)C(=O)N2C1 [PP2846] | A (a compound having 10 or more and less than 20 is denoted as A) | AA (a compound having 20 or more is denoted as AA) |
| 0.47 nM | CCC[C@H]1C(=O)N[C@@H]([C@@H](C)CC)C(=O)N(C)CC(=O)N(C)[C@H]2C/C=C\CCN(C2=O)[C@@H](Cc2ccc(C(F)(F)F)cc2)C(=O)N(C)CC(=O)N[C@@H](CCc2ccc(CC)c(Cl)c2)C(=O)N2C[C@H](OCC)C[C@H]2C(=O)NC2(CC(C)(C)C2)C(=O)N(C)[C@@H](C2CCCC2)C(=O)N(C)[C@H](C(=O)N(C)C)CC(=O)N1C [PP2848] | A (a compound having 10 or more and less than 20 is denoted as A) | A (a compound having 10 or more and less than 20 is denoted as A) |
| 0.58 nM | CCC[C@H]1C(=O)N[C@@H]([C@@H](C)CC)C(=O)N(C)CC(=O)N(C)[C@H]2C/C=C\CCN(C2=O)[C@@H](Cc2ccc(C(F)(F)F)cc2)C(=O)N(C)CC(=O)N[C@@H](CCc2cc(F)c3c(c2)CCC3)C(=O)N2C[C@H](OCC)C[C@H]2C(=O)NC2(CC(C)(C)C2)C(=O)N(C)[C@@H](C2CCCC2)C(=O)N(C)[C@H](C(=O)N(C)C)CC(=O)N1C [PP2849] | A (a compound having 10 or more and less than 20 is denoted as A) | A (a compound having 10 or more and less than 20 is denoted as A) |
| 0.39 nM | CCC[C@H]1C(=O)N[C@@H]([C@@H](C)CC)C(=O)N(C)CC(=O)N(C)[C@H]2C/C=C\CCN(C2=O)[C@@H](Cc2ccc(C(F)(F)F)cc2)C(=O)N(C)CC(=O)N[C@@H](CCc2cc(Cl)c3sccc3c2)C(=O)N2C[C@H](OCC)C[C@H]2C(=O)NC2(CC(C)(C)C2)C(=O)N(C)[C@@H](C(CC)CC)C(=O)N(C)[C@H](C(=O)N(C)C)CC(=O)N1C [PP2888] | A (a compound having 10 or more and less than 20 is denoted as A) | AA (a compound having 20 or more is denoted as AA) |
| 0.29 nM | CCC[C@H]1C(=O)N[C@@H]([C@@H](C)CC)C(=O)N(C)CC(=O)N(C)[C@H]2C/C=C\CCN(C2=O)[C@@H](Cc2ccc(C(F)(F)F)cc2)C(=O)N(C)CC(=O)N[C@@H](CCc2ccc3sc(C)c(C)c3c2)C(=O)N2C[C@H](OCC)C[C@H]2C(=O)NC2(CC(C)(C)C2)C(=O)N(C)[C@@H](C2CCCC2)C(=O)N(C)[C@H](C(=O)N(C)C)CC(=O)N1C [PP2889] | A (a compound having 10 or more and less than 20 is denoted as A) | A (a compound having 10 or more and less than 20 is denoted as A) |
| 0.42 nM | CCC[C@H]1C(=O)N[C@@H]([C@@H](C)CC)C(=O)N(C)CC(=O)N(C)[C@H]2C/C=C\CCN(C2=O)[C@@H](Cc2ccc(C)cc2)C(=O)N(C)CC(=O)N[C@@H](CCc2cc(Cl)c3sccc3c2)C(=O)N2C[C@H](OCC)C[C@H]2C(=O)NC2(CC(C)(C)C2)C(=O)N(C)[C@@H](C(CC)CC)C(=O)N(C)[C@H](C(=O)N(C)C)CC(=O)N1C [PP2890] | A (a compound having 10 or more and less than 20 is denoted as A) | AA (a compound having 20 or more is denoted as AA) |
| 0.28 nM | CCC[C@H]1C(=O)N[C@@H]([C@@H](C)CC)C(=O)N(C)CC(=O)N(C)[C@H]2C/C=C\CCN(C2=O)[C@@H](Cc2ccc(C(F)(F)F)cc2)C(=O)N(C)CC(=O)N[C@@H](CCc2ccc3sc(F)c(C)c3c2)C(=O)N2C[C@H](OCC)C[C@H]2C(=O)NC2(CC(C)(C)C2)C(=O)N(C)[C@@H](C(CC)CC)C(=O)N(C)[C@H](C(=O)N(C)C)CC(=O)N1C [PP2892] | A (a compound having 10 or more and less than 20 is denoted as A) | A (a compound having 10 or more and less than 20 is denoted as A) |
| 2 nM | CCC[C@H]1C(=O)N[C@@H]([C@@H](C)CC)C(=O)N(C)CC(=O)N(C)[C@H]2C/C=C\CCN(C2=O)[C@@H](Cc2ccc(C(F)(F)F)cc2)C(=O)N(C)CC(=O)N[C@@H](CCc2ccc3c(C)c(C)n(C)c3c2)C(=O)N2C[C@H](OCC)C[C@H]2C(=O)NC2(CC(C)(C)C2)C(=O)N(C)[C@@H](C2CCCC2)C(=O)N(C)[C@H](C(=O)N(C)C)CC(=O)N1C [PP2893] | A (a compound having 10 or more and less than 20 is denoted as A) | A (a compound having 10 or more and less than 20 is denoted as A) |
